According to patent publication US20220104481A1, “CRYOPRESERVATION OF STEM CELLS” (TiGenix, S.A.U., priority 2019, published 2022):

Test system: ASCs
Assay: MTS assay after post-thaw seeding of ASCs pretreated with compounds prior to freezing
Type: cell-based, human
Settings: 24 hours pretreatment before freezing (LY294 10 μM, sc79 10 μM, Exendin-4 20 nM)
Protocol: ASCs from donor A were thawed by warming the vials in a 37° C. bath and diluting the freezing medium containing DMSO with fresh complete DMEM (DMEM/F-12 media—GlutaMAX™-I, Gibco, supplemented with 100 μg/mL penicillin/streptomycin and 10% FBS). Cells were centrifuged at 450 g for 6 minutes at room temperature to eliminate leftover DMSO and plated in T-175 flasks at 20.000 cells/cm^2 in complete DMEM.
A 600 mM stock of NAC (SIGMA) was prepared in Milli-Q water (Millipore). This stock was used for pre-treatment and post-treatment by adding directly 50 μL stock solution per well into 5 mL of medium, making a final concentration of 6 mM. For 2 mM, only 16.7 μL were added per well, and in the case of 12 mM, 100 μL of stock were added. DMSO was used as the vehicle for sc79 and LY294.
Following the pretreatment step, the medium was removed, the cells were washed with PBS and trypsinized using trypsin-EDTA 0.25% (ThermoFisher) for 8 minutes at 37° C. After trypsin inactivation with complete DMEM, cells were harvested and centrifuged prior to resuspension in freezing medium (FBS with 10% DMSO), and frozen into 500,000 or 1 million cells per vial and stored in liquid nitrogen for further use. Specifically, the cells were frozen at −80° C. for 24 hours in a Cool Cell® device (BioCision) and then transferred to a liquid nitrogen storage container. All experiments were performed in incubators and 37° C., 5% CO2.
[…] The CellTiter 96° Aqueous One Solution Cell Proliferation Assay is a colorimetric method for determining the number of viable cells. The CellTiter 96° Aqueous One Solution reagent contains a tetrazolium compound [3-(4,5-dimethylthiazol-2-yl)-5-(3-carboxymethoxyphenyl)-2-(4-sulfophenyl)-2H-tetrazolium, MTS] and an electron coupling reagent (phenazine ethosulfate; PES). The MTS tetrazolium compound is bioreduced by cells—presumably by NADPH or NADH produced by dehydrogenase enzymes in metabolically active cells—into a coloured formazan product that is soluble in tissue culture medium.
Briefly, 40 μL of the reagent was added to 200 μL of complete DMEM in each well and absorbance was measured after 2-3 hours at 490 nm using a […]. Each condition was measured in 6 technical repeats. The MTS assay results are presented as percentage of absorbance at 490 nm relative to the non-treated (NT) cells.

Compound	effect of pre-treatment on post-thaw cell number
Exendin-4	did not show reproducible effects on cell number
IL6: pre-treatment assessed in addition to NAC; no concentration given	did not show reproducible effects on cell number
CCOC(=O)C1=C(N)Oc2ccc(Cl)cc2C1C(C#N)C(=O)OCC (stereo not shown) [sc79]	did not show reproducible effects on cell number
O=c1cc(N2CCOCC2)oc2c(-c3ccccc3)cccc12 [LY294]	did not show reproducible effects on cell number
